Assay results published in patent US9040067B2, “Disinfecting and antimicrobial compositions” (priority 2005, dated 2015).

How the values were obtained:
Type in all cases: cell-based
[1] = test system: Saccharomyces cerevisiae; experiment: MIC and MLC against yeast in Sab. broth; conditions: for Lethal (MLC) Concentration 1% / Inhibitory (MIC) Concentration 1%: 1% ester; for Lethal (MLC) Concentration 1.5% / Inhibitory (MIC) Concentration 1.5%: 1.5% ester; for Lethal (MLC) Concentration 2% / Inhibitory (MIC) Concentration 2%: 2% ester; for Lethal (MLC) Concentration 3% / Inhibitory (MIC) Concentration 3%: 3% ester; for Lethal (MLC) Concentration 4% / Inhibitory (MIC) Concentration 4%: 4% ester; on Lethal (MLC) Concentration 1%: key: + = growth (inactive); − = no growth (active); on Lethal (MLC) Concentration 1.5%: key: + = growth (inactive); − = no growth (active); on Lethal (MLC) Concentration 2%: key: + = growth (inactive); − = no growth (active); on Lethal (MLC) Concentration 3%: key: + = growth (inactive); − = no growth (active); on Lethal (MLC) Concentration 4%: key: + = growth (inactive); − = no growth (active)
Method: A 0.1 ml of 1/100 dilution of 48 hr old culture of S. cerevisiae was used as inoculum. The test was performed using Sab. broth. The tubes were incubated at room temperature 25° C. The test was read after 48 hrs.

[2] = test system: Pseudomonas aeruginosa; experiment: MIC/MLC in brain heart infusion broth; conditions: for MIC, Concentration of Lactic Esters 0.5%: 0.5% ester; for MIC, Concentration of Lactic Esters 1%: 1% ester; for MIC, Concentration of Lactic Esters 2%: 2% ester; for MIC, Concentration of Lactic Esters 3%: 3% ester; for MIC, Concentration of Lactic Esters 4%: 4% ester; for MIC, Concentration of Lactic Esters 5%: 5% ester; on all read-outs here: key: + = growth (inactive); − = no growth (active)
Method: (§1) The tests were carried out in 10 ml of brain heart infusion broth. The esters were serially diluted in brain heart infusion broth of samples of, 0.1, 0.2, 0.3, 0.4 and 0.5/10 ml and challenged with 0.1 ml of 1/100 dilution of 24 hr old brain heart infusion bacterial culture. The lowest concentration determined the minimum inhibitory concentration (MIC). The samples were observed after 48 hrs at 37° C. A loopful from tubes without growth were plated on BHI agar plates and observed for growth for 24 to 48 hrs at 37° C. The samples with the lowest concentration of the ester without bacterial growth on the plates represented the minimum lethal concentration (MLC).
(§2) A series of samples of (a) methyl lactate, (b) ethyl lactate and (c) butyl lactate, alone, and in admixture with varying amounts of decyl lactate and sodium dodecyl sulfates were used to test minimum inhibitory activity (MIC) by the method described in Example II, against the cultures of E. coli 0157 H7, Listeria monocytogenes, Staphylococcus aureus, Salmonella typhi, and Pseudomonas aeruginosa.

[3] = test system: Listeria monocytogenes; experiment: MIC/MLC in brain heart infusion broth; further: key: + = growth (inactive); − = no growth (active)
Method: as §1, §2

CCCCOC(=O)C(C)O (stereo not shown) [Butyl lactate, butyl lactate]
Lethal (MLC) Concentration 1% [1]: −
Inhibitory (MIC) Concentration 1% ([1]; 48 hrs, 25° C): −
Inhibitory (MIC) Concentration 1% ([1]; Sodium lauryl sulfate 200 ppm): −
Lethal (MLC) Concentration 1% ([1]; Sodium lauryl sulfate 200 ppm): −
Lethal (MLC) Concentration 1.5% [1]: −
Inhibitory (MIC) Concentration 1.5% ([1]; 48 hrs, 25° C): −
Inhibitory (MIC) Concentration 1.5% ([1]; Sodium lauryl sulfate 200 ppm): −
Lethal (MLC) Concentration 1.5% ([1]; Sodium lauryl sulfate 200 ppm): −
Lethal (MLC) Concentration 2% [1]: −
Inhibitory (MIC) Concentration 2% ([1]; 48 hrs, 25° C): −
Inhibitory (MIC) Concentration 2% ([1]; Sodium lauryl sulfate 200 ppm): −
Lethal (MLC) Concentration 2% ([1]; Sodium lauryl sulfate 200 ppm): −
Lethal (MLC) Concentration 3% [1]: −
Inhibitory (MIC) Concentration 3% ([1]; 48 hrs, 25° C): −
Inhibitory (MIC) Concentration 3% ([1]; Sodium lauryl sulfate 200 ppm): −
Lethal (MLC) Concentration 3% ([1]; Sodium lauryl sulfate 200 ppm): −
Lethal (MLC) Concentration 4% [1]: −
Inhibitory (MIC) Concentration 4% ([1]; 48 hrs, 25° C): −
Inhibitory (MIC) Concentration 4% ([1]; Sodium lauryl sulfate 200 ppm): −
Lethal (MLC) Concentration 4% ([1]; Sodium lauryl sulfate 200 ppm): −
MLC, Concentration of Butyl lactate 0.5% ([2]; 0.5%): +
MIC, Concentration of Lactic Esters 0.5% ([2]; SDS 0.0 ppm): +
MIC, Concentration of Lactic Esters 0.5% ([2]; SDS 50 ppm): −
MIC, Concentration of Lactic Esters 0.5% ([2]; SDS 100 ppm): −
MIC, Concentration of Lactic Esters 0.5% ([2]; SDS 200 ppm): −
MLC, Concentration of Butyl lactate 1% ([2]; 1%): +
MIC, Concentration of Lactic Esters 1% ([2]; SDS 0.0 ppm): +
MIC, Concentration of Lactic Esters 1% ([2]; SDS 50 ppm): −
MIC, Concentration of Lactic Esters 1% ([2]; SDS 100 ppm): −
MIC, Concentration of Lactic Esters 1% ([2]; SDS 200 ppm): −
MLC, Concentration of Butyl lactate 2% ([2]; 2%): +
MIC, Concentration of Lactic Esters 2% ([2]; SDS 0.0 ppm): −
MIC, Concentration of Lactic Esters 2% ([2]; SDS 50 ppm): −
MIC, Concentration of Lactic Esters 2% ([2]; SDS 100 ppm): −
MIC, Concentration of Lactic Esters 2% ([2]; SDS 200 ppm): −
MLC, Concentration of Butyl lactate 3% ([2]; 3%): −
MIC, Concentration of Lactic Esters 3% ([2]; SDS 0.0 ppm): −
MIC, Concentration of Lactic Esters 3% ([2]; SDS 50 ppm): −
MIC, Concentration of Lactic Esters 3% ([2]; SDS 100 ppm): −
MIC, Concentration of Lactic Esters 3% ([2]; SDS 200 ppm): −
MLC, Concentration of Butyl lactate 4% ([2]; 4%): −
MIC, Concentration of Lactic Esters 4% ([2]; SDS 0.0 ppm): −
MIC, Concentration of Lactic Esters 4% ([2]; SDS 50 ppm): −
MIC, Concentration of Lactic Esters 4% ([2]; SDS 100 ppm): −
MIC, Concentration of Lactic Esters 4% ([2]; SDS 200 ppm): −
MLC, Concentration of Butyl lactate 5% ([2]; 5%): −
MIC, Concentration of Lactic Esters 5% ([2]; SDS 0.0 ppm): −
MIC, Concentration of Lactic Esters 5% ([2]; SDS 50 ppm): −
MIC, Concentration of Lactic Esters 5% ([2]; SDS 100 ppm): −
MIC, Concentration of Lactic Esters 5% ([2]; SDS 200 ppm): −
MLC, Concentration of Butyl lactate 0.5% ([3]; 0.5%): +
MLC, Concentration of Butyl lactate 1% ([3]; 1%): +
MLC, Concentration of Butyl lactate 2% ([3]; 2%): −
MLC, Concentration of Butyl lactate 3% ([3]; 3%): −
MLC, Concentration of Butyl lactate 4% ([3]; 4%): −
MLC, Concentration of Butyl lactate 5% ([3]; 5%): −

COC(=O)C(C)O (stereo not shown) [Methyl lactate, methyl lactate]
Lethal (MLC) Concentration 1% [1]: +
Inhibitory (MIC) Concentration 1% ([1]; 48 hrs, 25° C): +
Inhibitory (MIC) Concentration 1% ([1]; Sodium lauryl sulfate 200 ppm): +
Lethal (MLC) Concentration 1% ([1]; Sodium lauryl sulfate 200 ppm): +
Lethal (MLC) Concentration 1.5% [1]: +
Inhibitory (MIC) Concentration 1.5% ([1]; 48 hrs, 25° C): +
Inhibitory (MIC) Concentration 1.5% ([1]; Sodium lauryl sulfate 200 ppm): +
Lethal (MLC) Concentration 1.5% ([1]; Sodium lauryl sulfate 200 ppm): +
Lethal (MLC) Concentration 2% [1]: +
Inhibitory (MIC) Concentration 2% ([1]; 48 hrs, 25° C): +
Inhibitory (MIC) Concentration 2% ([1]; Sodium lauryl sulfate 200 ppm): +
Lethal (MLC) Concentration 2% ([1]; Sodium lauryl sulfate 200 ppm): +
Lethal (MLC) Concentration 3% [1]: −
Inhibitory (MIC) Concentration 3% ([1]; 48 hrs, 25° C): −
Inhibitory (MIC) Concentration 3% ([1]; Sodium lauryl sulfate 200 ppm): −
Lethal (MLC) Concentration 3% ([1]; Sodium lauryl sulfate 200 ppm): −
Lethal (MLC) Concentration 4% [1]: −
Inhibitory (MIC) Concentration 4% ([1]; 48 hrs, 25° C): −
Inhibitory (MIC) Concentration 4% ([1]; Sodium lauryl sulfate 200 ppm): −
Lethal (MLC) Concentration 4% ([1]; Sodium lauryl sulfate 200 ppm): −
MIC, Concentration of Lactic Esters 0.5% ([2]; SDS 0.0 ppm): +
MIC, Concentration of Lactic Esters 0.5% ([2]; SDS 50 ppm): −
MIC, Concentration of Lactic Esters 0.5% ([2]; SDS 100 ppm): −
MIC, Concentration of Lactic Esters 0.5% ([2]; SDS 200 ppm): −
MIC, Concentration of Lactic Esters 1% ([2]; SDS 0.0 ppm): +
MIC, Concentration of Lactic Esters 1% ([2]; SDS 50 ppm): −
MIC, Concentration of Lactic Esters 1% ([2]; SDS 100 ppm): −
MIC, Concentration of Lactic Esters 1% ([2]; SDS 200 ppm): −
MIC, Concentration of Lactic Esters 2% ([2]; SDS 0.0 ppm): −
MIC, Concentration of Lactic Esters 2% ([2]; SDS 50 ppm): −
MIC, Concentration of Lactic Esters 2% ([2]; SDS 100 ppm): −
MIC, Concentration of Lactic Esters 2% ([2]; SDS 200 ppm): −
MIC, Concentration of Lactic Esters 3% ([2]; SDS 0.0 ppm): −
MIC, Concentration of Lactic Esters 3% ([2]; SDS 50 ppm): −
MIC, Concentration of Lactic Esters 3% ([2]; SDS 100 ppm): −
MIC, Concentration of Lactic Esters 3% ([2]; SDS 200 ppm): −
MIC, Concentration of Lactic Esters 4% ([2]; SDS 0.0 ppm): −
MIC, Concentration of Lactic Esters 4% ([2]; SDS 50 ppm): −
MIC, Concentration of Lactic Esters 4% ([2]; SDS 100 ppm): −
MIC, Concentration of Lactic Esters 4% ([2]; SDS 200 ppm): −
MIC, Concentration of Lactic Esters 5% ([2]; SDS 0.0 ppm): −
MIC, Concentration of Lactic Esters 5% ([2]; SDS 50 ppm): −
MIC, Concentration of Lactic Esters 5% ([2]; SDS 100 ppm): −
MIC, Concentration of Lactic Esters 5% ([2]; SDS 200 ppm): −
